Source: patent publication US10287301B2 (Achillion Pharmaceuticals, Inc., priority 2015, dated 2019)

Target: Human Factor D (Homo sapiens (Human), UniProt P00746)
Test: Human Factor D Assay
Assay type: biochemical
Details: Human Factor D assay of Example 8; Table 2; read-out: IC50
Outline: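 Thioester cleavage assay: human Factor D (serum-derived, 80 nM final), substrate Z-L-Lys-SBzl with DTNB, both 100 μM final, after 5 min compound preincubation at room temperature.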

Human Factor D, sequence (P00746 26-253): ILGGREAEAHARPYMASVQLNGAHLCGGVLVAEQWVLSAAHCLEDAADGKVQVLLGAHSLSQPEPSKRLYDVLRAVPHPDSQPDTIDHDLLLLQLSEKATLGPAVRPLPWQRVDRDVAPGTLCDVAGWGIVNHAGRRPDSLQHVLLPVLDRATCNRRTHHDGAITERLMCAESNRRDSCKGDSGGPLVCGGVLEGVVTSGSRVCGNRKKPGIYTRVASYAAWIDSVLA

Compound	IC50
COCCOCCNC(=O)c1ncc(-c2ccc3c(c2)c(C(C)=O)cn3CC(=O)N2C[C@H](F)C[C@H]2C(=O)Nc2cccc(-c3ccccc3Cl)c2F)cn1 [Compound 212, 5-(3-acetyl-1-(2-((2S,4R)-2-(2′-chloro-2-fluorobiphenyl-3-ylcarbamoyl)-4-fluoropyrrolidin-1-yl)-2-oxoethyl)-1H-indol-5-yl)-N-(2-(2-methoxyethoxy)ethyl)pyrimidine-2-carboxamide]	< 1000 nM
CC(=O)c1cn(CC(=O)N2C[C@H](F)C[C@H]2C(=O)Nc2cccc(Br)n2)c2ccc(-c3cnc(C(N)=O)nc3)cc12 [Compound 213, 5-(3-acetyl-1-(2-((2S,4R)-2-(6-bromopyridin-2-ylcarbamoyl)-4-fluoropyrrolidin-1-yl)-2-oxoethyl)-1H-indol-5-yl)pyrimidine-2-carboxamide]	< 1000 nM
CC(=O)c1nn(CC(=O)N2C[C@H](F)C[C@H]2C(=O)Nc2cccc(-c3ccc4[nH]cnc4c3Cl)c2F)c2ccc(-c3cnc(C)nc3)cc12 [Compound 214, (2S,4R)-1-(2-(3-acetyl-5-(2-methylpyrimidin-5-yl)-1H-indazol-1-yl)acetyl)-N-(3-(4-chloro-1H-benzo[d]imidazol-5-yl)-2-fluorophenyl)-4-fluoropyrrolidine-2-carboxamide]	< 1000 nM
CC(=O)c1cn(CC(=O)N2C[C@H](F)C[C@H]2C(=O)Nc2cccc(-c3ccccc3Cl)c2F)c2ccc(-c3cnc(N)nc3)cc12 [Compound 215, (2S,4R)-1-(2-(3-acetyl-5-(2-aminopyrimidin-5-yl)-1H-indol-1-yl)acetyl)-N-(2′-chloro-2-fluorobiphenyl-3-yl)-4-fluoropyrrolidine-2-carboxamide]	< 1000 nM
CC(=O)c1cn(CC(=O)N2C[C@H](F)C[C@H]2C(=O)Nc2cccc(Br)n2)c2ccc(-c3cnc(C4CC4)nc3)cc12 [Compound 216, (2S,4R)-1-(2-(3-acetyl-5-(2-cyclopropylpyrimidin-5-yl)-1H-indol-1-yl)acetyl)-N-(6-bromopyridin-2-yl)-4-fluoropyrrolidine-2-carboxamide]	< 1000 nM
CC(=O)c1ncc(-c2ccc3c(c2)c(C(C)=O)cn3CC(=O)N2C[C@H](F)C[C@H]2C(=O)Nc2cccc(Br)n2)cn1 [Compound 218, (2S,4R)-1-(2-(3-acetyl-5-(2-acetylpyrimidin-5-yl)-1H-indol-1-yl)acetyl)-N-(6-bromopyridin-2-yl)-4-fluoropyrrolidine-2-carboxamide]	< 1000 nM
CC(=O)c1cn(CC(=O)N2C[C@H](F)C[C@H]2C(=O)Nc2cccc(Br)n2)c2ccc(-c3cnc(N)nc3)cc12 [Compound 219, (2S,4R)-1-(2-(3-acetyl-5-(2-aminopyrimidin-5-yl)-1H-indol-1-yl)acetyl)-N-(6-bromopyridin-2-yl)-4-fluoropyrrolidine-2-carboxamide]	< 1000 nM
CC(=O)c1nn(CC(=O)N2C[C@H](F)C[C@H]2C(=O)Nc2cccc(OC(F)(F)F)c2F)c2ccc(-c3cnc(C)nc3)cc12 [Compound 220, (2S,4R)-1-(2-(3-acetyl-5-(2-methylpyrimidin-5-yl)-1H-indazol-1-yl)acetyl)-4-fluoro-N-(2-fluoro-3-(trifluoromethoxy)phenyl)pyrrolidine-2-carboxamide]	< 1000 nM
CC(=O)c1cn(CC(=O)N2N=CCC2C(=O)Nc2cccc(-c3ccccc3Cl)c2F)c2ccc(-c3cnc(C)nc3)cc12 (stereo not shown) [Compound 221, 1-(2-(3-acetyl-5-(2-methylpyrimidin-5-yl)-1H-indol-1-yl)acetyl)-N-(2′-chloro-2-fluorobiphenyl-3-yl)-4,5-dihydro-1H-pyrazole-5-carboxamide]	< 1000 nM
CC(=O)c1cn(CC(=O)N2C[C@H](F)C[C@H]2C(=O)Nc2cccc(Br)n2)c2ccc(-c3cnc4nccn4c3)cc12 [Compound 222, (2S,4R)-1-(2-(3-acetyl-5-(imidazo[1,2-a]pyrimidin-6-yl)-1H-indol-1-yl)acetyl)-N-(6-bromopyridin-2-yl)-4-fluoropyrrolidine-2-carboxamide]	< 1000 nM
CC(=O)c1cn(CC(=O)N2C[C@H](F)C[C@H]2C(=O)Nc2cccc(Cl)n2)c2ccc(-c3cnc4ccnn4c3)cc12 [Compound 223, (2S,4R)-1-(2-(3-acetyl-5-(pyrazolo[1,5-a]pyrimidin-6-yl)-1H-indol-1-yl)acetyl)-N-(6-chloropyridin-2-yl)-4-fluoropyrrolidine-2-carboxamide]	< 1000 nM
CC(=O)c1cn(CC(=O)N2C[C@H](F)C[C@H]2C(=O)Nc2cccc(OC(F)(F)F)c2F)c2ccc(-c3cnc4ccnn4c3)cc12 [Compound 224, (2S,4R)-1-(2-(3-acetyl-5-(pyrazolo[1,5-a]pyrimidin-6-yl)-1H-indol-1-yl)acetyl)-4-fluoro-N-(2-fluoro-3-(trifluoromethoxy)phenyl)pyrrolidine-2-carboxamide]	< 1000 nM
CC(=O)c1nn(CC(=O)N2C[C@H](F)C[C@H]2C(=O)Nc2cccc(Cl)n2)c2ccc(-c3cnc(C)nc3)cc12 [Compound 225, (2S,4R)-1-(2-(3-acetyl-5-(2-methylpyrimidin-5-yl)-1H-indazol-1-yl)acetyl)-N-(6-chloropyridin-2-yl)-4-fluoropyrrolidine-2-carboxamide]	< 1000 nM
CC(=O)c1nn(CC(=O)N2C[C@H](F)C[C@H]2C(=O)NCc2cccc(Cl)c2F)c2ccc(-c3cnc(C)nc3)cc12 [Compound 226, (2S,4R)-1-(2-(3-acetyl-5-(2-methylpyrimidin-5-yl)-1H-indazol-1-yl)acetyl)-N-(3-chloro-2-fluorobenzyl)-4-fluoropyrrolidine-2-carboxamide]	< 1000 nM
CC(=O)c1cn(CC(=O)N2NCCC2C(=O)Nc2cccc(-c3ccccc3Cl)c2F)c2ccc(-c3cnc(C)nc3)cc12 (stereo not shown) [Compound 227, 2-(2-(3-acetyl-5-(2-methylpyrimidin-5-yl)-1H-indol-1-yl)acetyl)-N-(2′-chloro-2-fluorobiphenyl-3-yl)pyrazolidine-3-carboxamide]	< 1000 nM
CC(=O)c1nn(CC(=O)N2C[C@H](F)C[C@H]2C(=O)Nc2nccc(-c3sccc3Cl)n2)c2ccc(-c3cnc(C)nc3)cc12 [Compound 228, (2S,4R)-1-(2-(3-acetyl-5-(2-methylpyrimidin-5-yl)-1H-indazol-1-yl)acetyl)-N-(4-(3-chlorothiophen-2-yl)pyrimidin-2-yl)-4-fluoropyrrolidine-2-carboxamide]	< 1000 nM
CC(=O)c1nn(CC(=O)N2C[C@H](F)C[C@H]2C(=O)Nc2cc(Cl)sc2C)c2ccc(-c3cnc(C)nc3)cc12 [Compound 229, (2S,4R)-1-(2-(3-acetyl-5-(2-methylpyrimidin-5-yl)-1H-indazol-1-yl)acetyl)-N-(5-chloro-2-methylthiophen-3-yl)-4-fluoropyrrolidine-2-carboxamide]	< 1000 nM
CC(=O)c1nn(CC(=O)N2CCC[C@H]2C(=O)Nc2cccc(Br)n2)c2ccc(-c3cnc(C)nc3)cc12 [Compound 230, (S)-1-(2-(3-Acetyl-5-(2-methylpyrimidin-5-yl)-1H-indazol-1-yl)acetyl)-N-(6-bromopyridin-2-yl)pyrrolidine-2-carboxamide]	< 1000 nM
CC(=O)c1nn(CC(=O)N2C[C@H](O)C[C@H]2C(=O)Nc2cccc(Br)n2)c2ccc(-c3cnc(C)nc3)cc12 [Compound 231, (2S,4R)-1-(2-(3-Acetyl-5-(2-methylpyrimidin-5-yl)-1H-indazol-1-yl)acetyl)-N-(6-bromopyridin-2-yl)-4-hydroxypyrrolidine-2-carboxamide]	< 1000 nM
CC(=O)c1nn(CC(=O)N2C[C@H](F)C[C@H]2C(=O)NC2CCN(C(=O)c3cc(Cl)c[nH]3)CC2)c2ccc(-c3cnc(C)nc3)cc12 [Compound 232, (2S,4R)-1-(2-(3-acetyl-5-(2-methylpyrimidin-5-yl)-1H-indazol-1-yl)acetyl)-N-(1-(4-chloro-1H-pyrrole-2-carbonyl)piperidin-4-yl)-4-fluoropyrrolidine-2-carboxamide]	< 1000 nM
CC(=O)c1nn(CC(=O)N2C[C@H](F)C[C@H]2C(=O)Nc2cccc(Br)n2)c2ccc(-c3cnc4ccnn4c3)cc12 [Compound 234, (2S,4R)-1-(2-(3-acetyl-5-(pyrazolo[1,5-a]pyrimidin-6-yl)-1H-indazol-1-yl)acetyl)-N-(6-bromopyridin-2-yl)-4-fluoropyrrolidine-2-carboxamide]	< 1000 nM
CC(=O)c1nn(CC(=O)N2C[C@H](F)C[C@H]2C(=O)Nc2cccc(OC(F)(F)F)c2F)c2ccc(-c3cnc4ccnn4c3)cc12 [Compound 235, (2S,4R)-1-(2-(3-acetyl-5-(pyrazolo[1,5-a]pyrimidin-6-yl)-1H-indazol-1-yl)acetyl)-4-fluoro-N-(2-fluoro-3-(trifluoromethoxy)phenyl)pyrrolidine-2-carboxamide]	< 1000 nM
CC(=O)c1nn(CC(=O)N2C[C@H](F)C[C@H]2C(=O)NCc2cccc(Cl)c2F)c2ccc(-c3cnc4ccnn4c3)cc12 [Compound 236, (2S,4R)-1-(2-(3-acetyl-5-(pyrazolo[1,5-a]pyrimidin-6-yl)-1H-indazol-1-yl)acetyl)-N-(3-chloro-2-fluorobenzyl)-4-fluoropyrrolidine-2-carboxamide]	< 1000 nM
CC(=O)c1nn(CC(=O)N2C[C@H](F)C[C@H]2C(=O)Nc2cccc(-c3ccccc3Cl)c2F)c2ccc(-c3cnc4ccnn4c3)cc12 [Compound 237, (2S,4R)-1-(2-(3-acetyl-5-(pyrazolo[1,5-a]pyrimidin-6-yl)-1H-indazol-1-yl)acetyl)-N-(2′-chloro-2-fluorobiphenyl-3-yl)-4-fluoropyrrolidine-2-carboxamide]	< 1000 nM
CC(=O)c1nn(CC(=O)N2[C@@H]3C[C@@H]3C[C@H]2C(=O)Nc2cccc(Br)n2)c2ccc(-c3cnc4ccnn4c3)cc12 [Compound 238, (1R,3S,5R)-2-(2-(3-acetyl-5-(pyrazolo[1,5-a]pyrimidin-6-yl)-1H-indazol-1-yl)acetyl)-N-(6-bromopyridin-2-yl)-2-azabicyclo[3.1.0] hexane-3-carboxamide]	< 1000 nM
